Assay results reported in patent US6710049B2, “Azole compounds as anti-fungal agents” (Ranbaxy Laboratories Limited, priority 2000, dated 2004).
≈ marks a conversion by molar mass, not a printed value.

Tests used:
Mucor (Ceylon) = assay: MFC determination (subculture on Sabouraud Dextrose Agar); assay type: cell-based; conditions: read-out: Minimum Fungicidal Concentration (MFC)
Outline: (§1)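 Broth microdilution per NCCLS M27A (yeasts) and M38P (Aspergillus), modified for dermatophytes and other filamentous fungi; RPMI 1640 buffered with MOPS to pH 7. MIC is the lowest concentration giving significant growth inhibition. Wells showing no growth are subcultured onto Sabouraud Dextrose Agar to give the MFC.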

C parapsilosis 22019 = assay: as above; assay type: cell-based; conditions: read-out: Minimum Fungicidal Concentration (MFC)
Outline: as §1

P variotii 22319 [1] = assay: MIC determination (NCCLS broth method); assay type: cell-based, Paecillomyces variotii; conditions: read-out: Minimum Inhibitory Concentration (MIC)
From the text: (§2) The in-vitro evaluation of the antifungal activity of the compounds can be performed by determining the minimum inhibitory concentration (MIC) as shown in Table 1 which is the concentration of the test compound in Rosewell Park Memorial Institute (RPMI) 1640 liquid medium buffered with 3-(Morpholino)propanesulphonic acid (MOPS) to pH 7, at which there is significant inhibition of the particular fungi. In practice the National Committee for Clinical Laboratory Standard (NCCLS) M27A document for Candida and Cryptococcus and M38P for Aspergillus was used to determine the MIC against yeast and filamentous fungi with suitable modifications for dermatophytes to other filamentous fungi. Three quality control strains were included each time the MIC were determined and readings recorded only when the Quality Control results fell into the acceptable range. After MIC results had been recorded, 100 μl from each of the well showing no growth was spread over Sabouraud Dextrose Agar (SDA) to determine the minimum fungicidal concentration (MFC) as shown in Table 2.

Penicilliuim 2306 = assay: MIC determination (NCCLS broth method); assay type: cell-based, Penicillium; conditions: Penicillium, read-out: Minimum Inhibitory Concentration (MIC)
From the text: as §2

Aspergillus fumigatous = assay: In vivo anti-fungal activity, ED50 in systemically infected mice; set-up: species or system Swiss albino mice; conditions: mice infected i.v. with Aspergillus fumigatous, dosing for five days
Description: The in-vivo evaluation of the compound can be carried out at a series of dose levels by oral or I. V. injection to mice which are inoculated I.V. with the minimum lethal dose of Candida albicans, Cryptococcus neoformans or Aspergillus fumigatus by the tail vein. Activity is based on the survival of a treated group of mice after the death of an untreated group of mice. For Aspergillus and Cryptococcus infections, target organs were cultured after treatment to document the number of mice cured of the infection for further assessment of activity.
Method: Briefly, Swiss albino mice weighing 20±2 G were injected intravenously (tail vein) with sufficient fungal cells to kill 100% of the untreated animals for Aspergillus fumigatous strain used. In all cases each group comprised of six mice. Five does levels, utilizing doubling dilution range, were employed per determination ranging from 25 to 1.56 mg/kg BW. Dosing was carried out for five days starting after 30 minutes of infection. […] Treated animals were monitored twice daily for 14 days post infection at which time the experiment was terminated and ED50 was calculated.

P variotii 22319 [2] = assay: MFC determination (subculture on Sabouraud Dextrose Agar); assay type: cell-based, Paecillomyces variotii; conditions: read-out: Minimum Fungicidal Concentration (MFC)
From the text: as §2

[3] = test system: Penicillium spp. isolates; assay: Comparative in vitro MIC, isolate panel; assay type: cell-based
From the text: as §2
(§3) A comparative in vitro and in vivo biologically activity data of the compound of our invention, 2-{[1R,2R]-2-(2,4-Difluorophenyl)-2-hydroxy-1-methyl-3-(1H-1,2,4-triazole-1-yl)propyl}-4-[(2′,2′,3′,3′-tetrafluoropropoxyphenyl)-3-(2H,4H)-1,2,4-thiotriazolone (Compound No. 3) with 2-[(1R,2R)-2-(2,4-difluorophenyl)-2-hydroxy-1-methyl-3-(1H-1,2,4-triazol-1-yl)propyl]-4-(2′,2′,3′,3′-tetraflouropropoxyphenyl)-3(2H,4H)-1,2,4-triazolone (TAK 187) and standard antifungal pharmaceuticals is given below: […]

All Candida isolates = assay: Comparative in vitro MIC, isolate panel; assay type: cell-based
From the text: as §2, §3

Rhizoupus spp. isolates = assay: Comparative in vitro MIC, isolate panel; assay type: cell-based
From the text: as §2, §3

All Filamentous isolates = assay: Comparative in vitro MIC, isolate panel; assay type: cell-based
From the text: as §2, §3

[4] = test system: Aspergillus fumigatus isolates; assay: Comparative in vitro MIC, isolate panel; assay type: cell-based
From the text: as §2, §3

All fungal pathogens = assay: Comparative in vitro MIC, isolate panel; assay type: cell-based
From the text: as §2, §3

Fusarium spp. isolates = assay: Comparative in vitro MIC, isolate panel; assay type: cell-based
From the text: as §2, §3

T. mentagrophyte = assay: Activity against dermatophytes; assay type: cell-based; set-up: unit not given here
From the text: as §2, §3

T. rubrum = assay: Activity against dermatophytes; assay type: cell-based; set-up: unit not given here
From the text: as §2, §3

C neoformans I = assay: MIC determination (NCCLS broth method); assay type: cell-based, Cryptococcus neoformans; conditions: Cryptococcus neoformans, read-out: Minimum Inhibitory Concentration (MIC)
From the text: as §2

C neoformans M-106 = assay: MIC determination (NCCLS broth method); assay type: cell-based, Cryptococcus neoformans; conditions: Cryptococcus neoformans, M106, read-out: Minimum Inhibitory Concentration (MIC)
From the text: as §2

A fumigatus SI-1 - 1019 [5] = assay: MFC determination (subculture on Sabouraud Dextrose Agar); assay type: cell-based, Aspergillus fumigatus; conditions: Aspergillus fumigatus, SI11019, read-out: Minimum Fungicidal Concentration (MFC)
From the text: as §2

A fumigatus 1008 [6] = assay: as above; assay type: cell-based, Aspergillus fumigatus; conditions: Aspergillus fumigatus, read-out: Minimum Fungicidal Concentration (MFC)
From the text: as §2

A fumigatus SI-1 - 1019 [7] = assay: MIC determination (NCCLS broth method); assay type: cell-based, Aspergillus fumigatus; conditions: Aspergillus fumigatus, SI11019, read-out: Minimum Inhibitory Concentration (MIC)
From the text: as §2

A fumigatus I - 1011 = assay: MIC determination (NCCLS broth method); assay type: cell-based, Aspergillus fumigatus; conditions: Aspergillus fumigatus, I1011, read-out: Minimum Inhibitory Concentration (MIC)
From the text: as §2

A fumigatus L - 1034 = assay: MIC determination (NCCLS broth method); assay type: cell-based, Aspergillus fumigatus; conditions: Aspergillus fumigatus, L1034, read-out: Minimum Inhibitory Concentration (MIC)
From the text: as §2

A fumigatus J - 1032 = assay: MIC determination (NCCLS broth method); assay type: cell-based, Aspergillus fumigatus; conditions: Aspergillus fumigatus, J1032, read-out: Minimum Inhibitory Concentration (MIC)
From the text: as §2

A fumigatus PGI - 1023 = assay: MIC determination (NCCLS broth method); assay type: cell-based, Aspergillus fumigatus; conditions: Aspergillus fumigatus, PGI1023, read-out: Minimum Inhibitory Concentration (MIC)
From the text: as §2

A fumigatus K - 1033 = assay: MIC determination (NCCLS broth method); assay type: cell-based, Aspergillus fumigatus; conditions: Aspergillus fumigatus, K1033, read-out: Minimum Inhibitory Concentration (MIC)
From the text: as §2

A fumigatus 1008 [8] = assay: MIC determination (NCCLS broth method); assay type: cell-based, Aspergillus fumigatus; conditions: Aspergillus fumigatus, read-out: Minimum Inhibitory Concentration (MIC)
From the text: as §2

A fumigatus II - 1012 = assay: MIC determination (NCCLS broth method); assay type: cell-based, Aspergillus fumigatus; conditions: Aspergillus fumigatus, II1012, read-out: Minimum Inhibitory Concentration (MIC)
From the text: as §2

With `CCC(C)n1ncn(-c2ccc(N3CCN(c4ccc(OCC5COC(Cn6cncn6)(c6ccc(Cl)cc6Cl)O5)cc4)CC3)cc2)c1=O` (stereo not drawn) [Itraconazole] the MFC (Mucor (Ceylon)) was > 128 µg/mL, the MFC (C parapsilosis 22019) was 8 µg/mL (≈ 11.3 µM) and the MIC (P variotii 22319 [1]) was 0.016 µg/mL (≈ 0.0227 µM). For the same compound, the MIC (Penicilliuim 2306) was 0.125 µg/mL (≈ 0.177 µM), the ED50 (Aspergillus fumigatous; Day 7 post infection) was 8.84 mg/kg body weight and the ED50 (Aspergillus fumigatous; Day 14 post infection) was 21.02 mg/kg body weight. For the same compound, the MFC (P variotii 22319 [2]) was 0.06 µg/mL (≈ 0.085 µM), the MIC [3] was 0.922 µg/mL (≈ 1.31 µM) and the MIC50 ([3]; read-out: MIC50) was 0.5 µg/mL (≈ 0.709 µM). It also gave an MIC90 ([3]; read-out: MIC90) of 256 µg/mL (≈ 363 µM), an MIC (All Candida isolates) of 0.1 µg/mL (≈ 0.142 µM) and an MIC50 (All Candida isolates; read-out: MIC50) of 0.25 µg/mL (≈ 0.354 µM). It also gave an MIC90 (All Candida isolates; read-out: MIC90) of 0.5 µg/mL (≈ 0.709 µM), an MIC (Rhizoupus spp. isolates) of 32 µg/mL (≈ 45.3 µM) and an MIC50 (Rhizoupus spp. isolates; read-out: MIC50) of 16 µg/mL (≈ 22.7 µM). For the same compound, the MIC90 (Rhizoupus spp. isolates; read-out: MIC90) was 64 µg/mL (≈ 90.7 µM), the MIC (All Filamentous isolates) was 0.6 µg/mL (≈ 0.85 µM) and the MIC50 (All Filamentous isolates; read-out: MIC50) was 0.25 µg/mL (≈ 0.354 µM). The MIC90 (All Filamentous isolates; read-out: MIC90) was 256 µg/mL (≈ 363 µM), the MIC [4] was 0.181 µg/mL (≈ 0.257 µM) and the MIC50 ([4]; read-out: MIC50) was 0.25 µg/mL (≈ 0.354 µM). It also gave an MIC90 ([4]; read-out: MIC90) of 0.5 µg/mL (≈ 0.709 µM), an MIC (All fungal pathogens) of 0.437 µg/mL (≈ 0.619 µM) and an MIC50 (All fungal pathogens; read-out: MIC50) of 0.19 µg/mL (≈ 0.269 µM). It also gave an MIC90 (All fungal pathogens; read-out: MIC90) of 256 µg/mL (≈ 363 µM), an MIC (Fusarium spp. isolates) of 90.5 µg/mL (≈ 128 µM) and an MIC50 (Fusarium spp. isolates; read-out: MIC50) of 64 µg/mL (≈ 90.7 µM). For the same compound, the MIC90 (Fusarium spp. isolates; read-out: MIC90) was 256 µg/mL (≈ 363 µM), the Activity against dermatophytes (T. mentagrophyte) was 0.125 and the Activity against dermatophytes (T. rubrum) was 0.03. The MIC (C neoformans I) was 0.03 µg/mL (≈ 0.0425 µM), the MIC (C neoformans M-106) was 0.03 µg/mL (≈ 0.0425 µM) and the MFC (A fumigatus SI-1 - 1019 [5]) was 0.25 µg/mL (≈ 0.354 µM). For the same compound, the MFC (A fumigatus 1008 [6]) was 0.06 µg/mL (≈ 0.085 µM), the MIC (A fumigatus SI-1 - 1019 [7]) was 0.03 µg/mL (≈ 0.0425 µM) and the MIC (A fumigatus I - 1011) was 0.06 µg/mL (≈ 0.085 µM). For the same compound, the MIC (A fumigatus L - 1034) was 0.06 µg/mL (≈ 0.085 µM), the MIC (A fumigatus J - 1032) was 0.03 µg/mL (≈ 0.0425 µM) and the MIC (A fumigatus PGI - 1023) was 0.03 µg/mL (≈ 0.0425 µM). The MIC (A fumigatus K - 1033) was 0.06 µg/mL (≈ 0.085 µM), the MIC (A fumigatus 1008 [8]) was 0.06 µg/mL (≈ 0.085 µM) and the MIC (A fumigatus II - 1012) was 0.06 µg/mL (≈ 0.085 µM).
